Assay [1] deals with hair growth of hamster flank organs. Put plainly: Golden Syrian hamster assay (flank organ hair mass after topical application). Type of assay: in vivo. The note with it: for Treated (mg) hair mass: treated flank organ, mean ± SEM; for Percent Inhibition (mean ± SEM) of hair growth: vs vehicle treated side. From the text:
Male intact Golden Syrian hamsters are considered acceptable models for human beard hair growth in that they display oval shaped flank organs, one of each side, each about 8 mm. in major diameter, which growth thick black and coarse hair similar to human beard hair. These organs produce hair in response to androgens in the hamster. To evaluate the effectiveness of a particular arginase inhibitor the flank organs of each of a group of hamsters are depilated by applying a thioglycolate based chemical depilatory (Surgex). To one organ of each animal 10 μl of vehicle alone once a day is applied, while to the other organ of each animal an equal amount of vehicle containing an arginase inhibitor is applied. After thirteen applications (one application per day for five days a week), the flank organs are shaved and the amount of recovered hair (hair mass) from each is weighed. Percent-reduction of hair growth is calculated by subtracting the hair mass (mg) value of the test compound treated side from the hair mass value of the vehicle treated side; the delta value obtained is then divided by the hair mass value of the vehicle treated side, and the resultant number is multiplied by 100.
The above-described assay will be referred to herein as the "Golden Syrian hamster" assay.

The subject of the next assay is hair follicle arginase. Kind of assay: In vitro assay for inhibitors of hair follicle arginase. The class given is biochemical. The note with it: compound 10 μM, hamster flank organ hair follicle extract, 5 minutes at 37° C., ornithine formation by HPLC. How it is done: Extracts of hair follicles were obtained by excising and sonicating hair follicles obtained from hamster flank organs. The hair follicles from the hamster flank organ were excised and sonicated in a 0.01M Tris-buffered solution, pH 7.5. The sonicated extracts were centrifuged at 12,000×g, and the supernatant was used to measure arginase activity. Final reaction volumes were achieved by using 90 μl of the follicle supernatant, which was mixed with 100 μl of the Tris buffer (with or without the inhibitor), and 10 μl of 20 mM arginine incubated for 5 minutes at 37° C. The enzyme reaction was stopped by separating the enzyme from the substrate with a 10,000 molecular weight cut off filter. The product formed, ornithine, was separated from the substrate arginine using reverse phase HPLC methodology. An aliquot of the reaction was used to generate 20 μl of the filtrate which was reacted with 20 μl of O-pthalaldehyde (OPA) reagent. This reagent rapidly reacts with all primary amino acids to form fluorescent adducts that are separated on a C18 column (15 cm×3.9 mm). The 40 μl of derivatized sample is injected into the HPLC column and eluted with a stepwise gradient starting at 100% Buffer A (0.024M sodium acetate, 0.024M sodium phosphate, pH 4.0/methanol/tetrahydrofuran in a ratio of 81:15:4) and ending in a 50/50 mixture of Buffer A and Buffer B (methanol/water/tetrahydrofuran in a ratio of 75:15:10). A fluorescent detector was used to monitor the amino acid peaks as they eluted off the column.

Where [2] appears, read: dose 10%, vehicle A, pH 6.5, 13 applications.
The mark [3] stands for this setting: dose 7.5%, vehicle A, pH 3.5, 13 applications.
Setting [4] is: dose 10%, vehicle A, pH not given, 13 applications.
The mark [5] stands for this setting: dose 10%, vehicle B, pH 7.0, 13 applications.
The mark [6] stands for this setting: dose 10%, vehicle H2O, 13 applications.

The structures appear in SMILES notation.

On to `CCN=C=NCCCN(C)C` [1-Ethyl-3-(3-dimethylaminopropyl)-carbodiimide], for which, in assay [1] (setting [2]), the “Treated (mg) hair mass” value was determined as 0.9 ± 0.9 mg and the “Percent Inhibition (mean ± SEM) of hair growth” value (shortened to “Percent Inhibition (mean ± SEM)”) was determined as 57 ± 5. Further, the “% Inhibition of hair follicle arginase” value in the assay with hair follicle arginase came to 64%.

With `Cc1ccc(S(=O)(=O)N[C@@H](CCCNC(=N)N)C(=O)O)cc1` [N-Tosyl-L-arginine], in assay [1] (setting [3]), the “Treated (mg) hair mass” value is on record as 0.83 ± .13 mg and the “Percent Inhibition (mean ± SEM)” value is on record as 42 ± 13. Also, the “% Inhibition of hair follicle arginase” value in the assay on hair follicle arginase worked out at 64%.

As to `N=C(NO)NCCC[C@H](N)C(=O)O` [N^-G -Hydroxy-L-arginine], in assay [1] (setting [4]), the “Treated (mg) hair mass” value was 0.97 ± .19 mg and the “Percent Inhibition (mean ± SEM)” value came out at 66 ± 6. In the assay with hair follicle arginase, the “% Inhibition of hair follicle arginase” value was 98%.

On to `CC(NC(CCCNC(=N)N)C(=O)O)C(=O)O` (stereo not drawn) [Octopine], for which, in assay [1] (setting [5]), the “Treated (mg) hair mass” value is on record as 0.45 ± .07 mg and the “Percent Inhibition (mean ± SEM)” value is listed as 68 ± 6. For the same compound, in the assay with hair follicle arginase, the “% Inhibition of hair follicle arginase” value turned out to be 50%.

With `CC(C)(N)C(=O)O` [α-Aminoisobutyric acid], in assay [1] (setting [6]), the “Treated (mg) hair mass” value was determined as 1.96 ± 2.1 mg and the “Percent Inhibition (mean ± SEM)” value turned out to be 34 ± 9. Besides, the “% Inhibition of hair follicle arginase” value in the assay with hair follicle arginase was determined as 27%.

(Values after patent publication US5728736A, “Reduction of hair growth” (priority 1995, dated 1998).)
